# In patent US20160237158A1, “Methods and Compositions for Targeting Tumor Microenvironment and for preventing Metastasis” (INSTITUT NATIONAL DE LA SANTÉ ET DA LA RECHERCHE MÉDICALE …, priority 2013, published 2016):
# How the values were obtained:
# Format in all cases: cell-based, human
# [1] = system: hDF and hCAF; assay: Matrix remodelling (collagen gel contraction) assay; conditions: collagen rich lattices
# Method: 2.5×10^4 Fibroblasts were embedded in 100 μl of matrix gel (the Collagen-Matrigel mixture used for organotypic invasion assays) and plated into wells of a 96 well plate^57. After 1 h at 37° C., the matrices were overlaid with 100 μl serum-free medium (with either vehicle, cytokines or inhibitors) or CM. Every 2 days, medium was changed and at day 6 the gels were photographed and the respective diameters of the well and gel were measured using ImageJ. The percentage contraction was calculated using the formula 100*(well diameter−gel diameter)/well diameter.
# [2] = system: STAT3; assay: STAT3 phosphorylation in fibroblasts (western blot)
# Source text: (§1) For western blot analysis, antibodies against STAT3 (#9134), pY705-STAT3 (#9145), SMAD2 (#3122), pSer465/467-SMAD2 (#3108), pY1022/1023-JAK1 (#3331), MLC2 (#3672), pThr18/19-MLC2 (#3674) were purchased from Cell Signaling (Cell Signaling Technology, Beverly Mass.), α-tubulin from sigma (T4026, Sigma, Saint Louis, Mo.); JAK1 from Biolegend (#604402, Biolegend, San Diego, Calif.), GP-130 (#sc-655) and RhoA (#sc-418, Santa Cruz Biotechnology, Santa Cruz, Calif.), and alpha-smooth muscle actin (α-SMA) from Abcam (#Ab5694, Abcam, Cambridge, Mass.). For immunofluorescence staining, antibodies against α-SMA and fibronectin were purchased from Sigma (#A2547 and F3648 respectively, Sigma, Saint Louis, Mo.). Chemical inhibitors used: Pyridone 6 (#42009, Calbiochem, Los Angeles, Calif.) was used at […], SB431542 (#1614, Tocris bioscience, Ellisville, Mo.) at 10 μM, Y27632 (#1254, Tocris bioscience, Ellisville, Mo.) and Actinomycin D (#856258, Sigma, Saint Louis, USA) at 5 μg/ml.
# For immunoblotting analysis, cells were lysed on ice in lysis buffer (25 mM Tris (pH 6.8), 2% Sodium dodecyl sulfate (SDS), 5% glycerol, 1% beta-mercaptoethanol, 0.01% bromophenol blue). Equal amounts of protein from each sample were loaded on sodium dodecyl sulfate-polyacrylamide gel electrophoresis, separated, and transferred onto nitrocellulose. The immunoblots were blocked by incubation in 5% bovine serum albumin, 10 mM Tris-HCl (ph7.5), 500 mM NaCl, 0.1% Tween 20 for 30 min at room temperature, probed with specific antibodies and then with secondary antibodies using common classical methods. Immunodetection was performed using chemiluminescent HRP subtrate (#WBKLS0500, Millipore, Billerica, Mass.).
# [3] = system: hDF; assay: Collagen fibre assembly in 3D-organotypic cultures (Sirius Red); conditions: hDF stimulated by either TGFβ1 or LIF
# Method: After embedding in paraffin, tissue sections from organotypic culture, skin from human breast and foreskin, and human skin carcinomas were prepared on slides using standard methods. Collagen assembly was evaluated by Sirius Red staining. Briefly, sections were first incubated with Weigert's iron hematoxylin (#C0231, Diapath, Martinengo, Italy) for 8 minutes and washed in distilled water for 10 minutes. Sections were next incubated with 1% Sirius Red in saturated picric acid for 1 hour. The slides were then washed twice with 0.5% acetic acid in distilled H2O, dehydrated and mounted using classical procedures. Sections were analysed using polarized light imaging and confocal laser microscopy with a LSM 5 EXCITER confocal microscope (Carl Zeiss, Germany). Collagen fibres thickness and length were quantified using ImageJ software.
# [4] = system: SCC12 cells; assay: Organotypic invasion assay
# Method: In this assay, hDF or CAFs were cultured during one week in serum-free medium (with either vehicle or cytokines) or CM before embedding in matrix gel. 5×10^5 fibroblasts were embedded in a 1 ml mixture of collagen I and Matrigel18. After the gel was set at 37° C. for 1 h, 5×10^5 SCC12 were plated on top of the gel in complete media. The next day, the gel was lifted onto individual collagen coated nylon discs resting on metal bridges and fed from underneath with daily changes of complete media (with either vehicle or inhibitors), allowing the epithelial layer to grow at an air-liquid interface.
# After 5 days, cultures were fixed (4% paraformaldehyde+0.25% glutaraldehyde in PBS) and processed for haematoxylin and eosin (H&E) staining by standard methods. Invasion assay was measuring the total area of SCC cells and the area of non-invading SCC cells using imageJ software (http://rsbweb.nih.gov/ij/). The value of invasion index shown is the average 1−(non-invading area/total area) of at least ten fields from three or more independent experiments. Error bars are the standard deviation.
# [5] = system: SMAD2; assay: SMAD2 phosphorylation in fibroblasts (western blot); conditions: TGFβ1- or LIF-stimulated fibroblasts
# Source text: as §1
# For immunoblotting analysis, cells were lysed on ice in lysis buffer (25 mM Tris (pH 6.8), 2% Sodium dodecyl sulfate (SDS), 5% glycerol, 1% beta-mercaptoethanol, 0.01% bromophenol blue). Equal amounts of protein from each sample were loaded on sodium dodecyl sulfate-polyacrylamide gel electrophoresis, separated, and transferred onto nitrocellulose. […]
smiles,measurement,setting,value
"N#CCC(C1CCCC1)n1cc(-c2ncnc3[nH]ccc23)cn1 (stereo not shown) [Ruxolitinib, 3-Cyclopentyl-3-[4-(7H-pyrrolo[2,3-d]pyrimidin-4-yl)-1H-pyrazol-1-yl]propanenitrile]",TGFβ1 and LIF-dependent activation of hDF contractility,[1],completely inhibited
same,STAT3 phosphorylation,[2]; TGFβ1- or LIF-stimulated fibroblasts,repressing
same,CAF endogenous STAT3 activity,[2]; hCAF,inhibition
same,capacity to assembly polarized collagen fibres,[3],inhibited
same,track formation and SCC12 cell invasion promoted by hCAF,[4]; hCAF,prevented
same,pro-invasive hDF activation induced upon TGFβ1 and LIF stimulation,"[4]; hDF, TGFβ1 and LIF stimulation",abrogated
same,effect on SMAD2,[5],no effect
